Series [1] has as its system Chrysosporium keratinophilum. Nature of the series: Agar plate disc-diffusion, antifungal activity. It counts as cell-based. On the procedure: (§1) The agar plate disc-diffusion method was applied. […] The discs were then placed onto the surface of agar plates (nutrient agar for bacteria and Sabouraud's dextrose agar for fungi) seeded with the test organism. Each plate contained 15 mL of the agar medium, previously seeded with 0.2 mL of the broth culture of each organism pregrown for 18 hours. The plates were incubated at 37° C. for 48 hours, and 72 hours for fungi. The inhibition zones were measured in millimeter. Discs impregnated with DMSO were used as a control, and its inhibition zone was subtracted from the tested compound actual inhibition zone.
(§2) The results of the antimicrobial testing can be observed in Tables 1 and 2, below, with ciprofloxacin serving as a reference.
Background: In agar diffusion tests the substance spreads into inoculated agar from a disc or well.

Another series has as its system Aspergillus flavus. Put plainly: Agar plate disc-diffusion, antifungal activity. Format: cell-based. On the procedure:
as §1, §2

In the next series the test system is Staphylococcus aureus. Put plainly: Agar plate disc-diffusion, antibacterial activity. Format: cell-based. On the procedure:
as §1, §2

A further series concerns Escherichia coli. Nature of the series: Agar plate disc-diffusion, antibacterial activity. Format: cell-based. On the procedure:
as §1, §2

The next series deals with Pseudomonas aeruginosa. Put plainly: Agar plate disc-diffusion, antibacterial activity. Format: cell-based. On the procedure:
as §1, §2

In the next series the test system is Bacillus cereus. Nature of the series: Agar plate disc-diffusion, antibacterial activity. It counts as cell-based. As to the method:
as §1, §2

The mark [2] stands for this setting: A = concentration of comp. = 10,000 μL.
[3] abbreviates: B = concentration of comp. = 30,000 μL.
The mark [4] stands for this setting: C = concentration of comp. = 50,000 μL.

Drawing on patent US11952371B1, “2-[(1,3-benzoxazol-2-yl)imino]-5,5-diphenylimidazolidin-4-one as an antimicrobial compound” (KING FAISAL UNIVERSITY, priority 2023, dated 2024), this text covers melting point and inhibition zone for two molecules.

For orientation: melting point means the temperature of the solid-liquid transition.

SMILES strings stand for the structures.

For the molecule `O=C1N/C(=N/c2nc3ccccc3o2)NC1(c1ccccc1)c1ccccc1` [compound 3, 2-[(1,3-benzoxazol-2-yl)imino]-5,5-diphenylimidazolidin-4-one], the melting point lay within 234 to 236 °C. In series [1] (setting [2]), this molecule came in with an inhibition zone of 22 millimeter. Moreover, the inhibition zone in series [1] (setting [3]) is reported as 25 millimeter. Further, the inhibition zone in series [1] (setting [4]) is reported as 47 millimeter. Besides, the inhibition zone with Aspergillus flavus (setting [2]) turned out to be 19 millimeter. For the same molecule, the inhibition zone in the series with Aspergillus flavus (setting [3]) is 23 millimeter. For the same molecule, the inhibition zone with Aspergillus flavus (setting [4]) is 37 millimeter. In the series with Staphylococcus aureus (setting [2]), this molecule yielded an inhibition zone of 16 millimeter. The same molecule had an inhibition zone in the series with Staphylococcus aureus (setting [3]) of 19 millimeter. In the series on Staphylococcus aureus (setting [4]), this molecule gave an inhibition zone of 23 millimeter. In addition, in the series on Escherichia coli (setting [2]), the inhibition zone was 25 millimeter. For the same molecule, the inhibition zone in the series with Escherichia coli (setting [3]) is on record as 33 millimeter. In addition, the inhibition zone in the series on Escherichia coli (setting [4]) is 39 millimeter. The same molecule registered an inhibition zone in the series with Pseudomonas aeruginosa (setting [2]) of 26 millimeter. Besides, the inhibition zone in the series with Pseudomonas aeruginosa (setting [3]) is reported as 30 millimeter. In addition, the inhibition zone with Pseudomonas aeruginosa (setting [4]) turned out to be 48 millimeter. For the same molecule, the inhibition zone in the series on Bacillus cereus (setting [2]) is 27 millimeter. For the same molecule, the inhibition zone with Bacillus cereus (setting [3]) was determined as 30 millimeter. In the series on Bacillus cereus (setting [4]), this molecule came in with an inhibition zone of 42 millimeter.
Regarding `O=C(O)c1cn(C2CC2)c2cc(N3CCNCC3)c(F)cc2c1=O` [Cip., ciprofloxacin, reference compound], the inhibition zone in series [1] (setting [2]) came to 29 millimeter; in series [1] (setting [3]), 30 millimeter; in series [1] (setting [4]) it was 53 millimeter; in the series with Aspergillus flavus (setting [2]), 29 millimeter; with Aspergillus flavus (setting [3]) it was 30 millimeter; with Aspergillus flavus (setting [4]), 42 millimeter. For the same molecule, the inhibition zone with Staphylococcus aureus (setting [2]) is listed as 42 millimeter; with Staphylococcus aureus (setting [3]) it was 44 millimeter; in the series with Staphylococcus aureus (setting [4]) it was 53 millimeter; in the series with Escherichia coli (setting [2]), 30 millimeter; in the series on Escherichia coli (setting [3]) it was 39 millimeter; with Escherichia coli (setting [4]), 60 millimeter. The inhibition zone is on record as 29 millimeter in the series with Pseudomonas aeruginosa (setting [2]); 30 millimeter in the series on Pseudomonas aeruginosa (setting [3]); 53 millimeter in the series with Pseudomonas aeruginosa (setting [4]); 29 millimeter with Bacillus cereus (setting [2]); 31 millimeter in the series with Bacillus cereus (setting [3]); 42 millimeter with Bacillus cereus (setting [4]).
